What was measured:
[1] = test system: mice peritoneal mast cells; assay: Inhibition of histamine release from mice peritoneal mast cells; format: cell-based; conditions: Mus musculus, Mast cell, 0.5 h; anti-DNP24-BSA IgE sensitized, DNP24-BSA 20 ng/ml 30 min; extract 100 μg/ml, Cromolyn 10^−4 M
Experimental: Each mouse was anesthetized with ether, and injected with 20 ml of Tyrode buffer B (NaCl, glucose, NaHCO3, KCl, NaH2PO4) containing 0.1% gelatin into the peritoneal cavity; then the abdomen was gently massaged for about 90 seconds. The peritoneal cavity was carefully opened, and the fluid containing peritoneal cells was aspirated by pasteur pipette. The peritoneal cells were then sedimented at 150×g for 10 min. at room temperature and resuspended in Tyrode buffer B. Mast cells were separated from the major components of rat peritoneal cells as described in the literature (Yurt et al., J Exp Med., 1; 146(5), pp 1405-19, 1977). Peritoneal cells suspended in 1 ml of Tyrode buffer B were layered onto 2 ml of 0.225 g/ml metrizamide (density 1.120 g/ml) and centrifuged at room temperature for 15 min at 400×g. […] Mast cells were stimulated with 20 ng/ml of DNP24-BSA as an antigen for 30 min., and histamine released into the medium was measured by […]). Inhibition of histamine release was calculated as following empirical formula 1; Percent inhibition=100×(A-B)/(A-C) [Empirical Formula 1] • A: Stimulated level (Histamine release with IgE-stimulation). • B: Suppressed level (Histamine release with IgE-stimulation and drug treatment). • C: Basal level (Histamine release without IgE-stimulation).

U266B1 cell line = assay: Inhibition of IgE production in LPS-stimulated U266B1 cell line (ELISA); format: cell-based, human; conditions: 7 days
[2] = test system: splenocytes of ovalbumin-sensitized mouse; assay: Ovalbumin-sensitized mouse model: expression of cytokines by splenocytes re-stimulated with ovalbumin (ELISA); format: in vivo; conditions: splenocytes of OVA-stimulated mouse, ovalbumin 100 μg/ml, 3 days
Experimental: The ovalbumin-sensitized mouse model is commonly used as animal model of allergy. Female BALB/c mice, aged 6 weeks (Seoul national university animal experimental center) were adapted to the environment for 7 days.
On the 25th day, mice were sacrificed and blood serum and spleen was collected therefrom.
Each prepared splenocytes was pooled and homogenized under an aseptic condition.
Splenocytes prepared as above were inoculated in 24-well plate (5×10^6 cell/ml/well), treated with 100 μg/ml of ovalbumin, and incubated at 37° C. under an atmosphere containing 5% CO2 for 3 days. After cultivation was finished, a culture solution was gathered and then the concentration of cytokines (IL-4, IL-5, IL-12 and interferon-γ) related to allergy were measured by commercial ELISA kits.

Nc/Nga mouse = Nc/Nga mouse model of atopic dermatitis: scratching and serum IgE, IgG1, IgG2a; format: in vivo; conditions: oral 8 weeks, extract 300 μg/mouse/day, dexamethasone 10 μg/mouse/day, 16 weeks old
Experimental: To confirm anti-allergic effect of hardy kiwifruit extract in animals, Nc/Nga mouse model that has been widely used as an animal model for human atopic dermatitis study was employed.
(§1) For experiment, 15 of Nc/Nga mice (7 weeks after birth, female) were divided into 3 groups and adapted to new circumstance for 1 week. Since 8 weeks after birth, the hardy kiwifruit extract (300 μg/mouse/day) prepared in example 1-1 as a treatment group had been orally administered and dexamethasone (10 μg/mouse/day) or drinking water (100 μg/mouse/day) as control groups had been orally administered for 8 weeks. To compare the progress of dermatitis symptom, the scratching frequency of mouse (the time spent scratching during 20 min-observation) was measured when mice is grown at the age of 12 and 14 weeks. 16 weeks old mouse was sacrificed and the quantity of IgE, IgG1 and IgG2a level in serum were measured by ELISA method. Also, to compare the production of Th1/Th2 cytokines, splenocyte was prepared by conventional method from each mouse, transferred into 24-well plate (5×10^6 cells/ml/well) and incubated with ConA (1 μg/ml) for 3 days and then the levels of IL-4, IL-5, IL-12, and Interferon-γ were measured by ELISA method.

[3] = test system: ovalbumin-sensitized mouse; assay: Ovalbumin-sensitized mouse model: ovalbumin-specific IgE, IgG1, IgG2a, IgG2b in serum (ELISA); format: in vivo; conditions: BALB/c, oral 11 days, extract 300 μg/mouse/day, dexamethasone 10 μg/mouse/day
Experimental: The ovalbumin-sensitized mouse model is commonly used as animal model of allergy. Female BALB/c mice, aged 6 weeks (Seoul national university animal experimental center) were adapted to the environment for 7 days. At the time of 7 weeks after birth, 100 μl of emulsion, mixed 25 μg of ovalbumin (chicken egg albumin, crude grade V, Sigma Co., Ltd.) with 2.25 mg of aluminum hydroxide (ImujectAlum, Pierce Co., Ltd.) was injected into mouse peritoneal cavity and 14 days after, it was injected once more for boosting.
And then 30 mice were divided into 3 groups and each group was orally administered with the hardy kiwifruit water extract of Example 1-1 (300 μg/mouse/day), dexamethasone (10 μg/mouse/day), or drinking water (100 μg/mouse/day) for 11 days, respectively. On the 25th day, mice were sacrificed and blood serum and spleen was collected therefrom.
In serum collected in Example 2-1, the serum levels of ovalbumin-specific IgE, IgG1, IgG2a and IgG2b were measured by ELISA kits (PharMingen Co., Ltd).

[4] = test system: splenocytes of Nc/Nga mouse; assay: Nc/Nga mouse model: Th1/Th2 cytokine production by ConA-stimulated splenocytes; format: in vivo; conditions: ConA 1 μg/ml, 3 days
Experimental: as §1, with “Since 8 weeks after birth, the hardy kiwifruit extract (300 μg/mouse/day) prepared in example 1-1 as a treatment group had been orally administered and dexamethasone (10 μg/mouse/day) or drinking water (100 μg/mouse/day) as control groups had been orally administered for 8 weeks.” left out

[5] = test system: edema induced by arachidonic acid in the ears of mice; assay: Edema induced by arachidonic acid in the ears of mice; format: in vivo; conditions: BALB/c, p.o. 1 hour before arachidonic acid, extract 200 mg/kg, indomethacin 10 mg/kg
Experimental: 15 mice (8 week old male BALB/c) were fasted for 18 hours with free access to water and divided into 3 groups. Inflammation was induced by topical application of arachidonic acid (0.5 mg/20 μl acetone) to the right ear of each mouse. The left ear was used as a negative control and received the vehicle (20 μl acetone). The hardy kiwifruit extract (200 mg/kg in water) was administered p.o. 1 hour prior to arachidonic acid application. The positive control group received indomethacin (10 mg/kg, p.o.) 1 hour before arachidonic acid application. Inflammation was followed for 1 hour and thereafter the animals were sacrificed. A section of 6 mm diameter disc from each ear was obtained and weighed. The edema index was assessed using the increase in the weight of the treated right ear punch biopsy over that of the untreated left ear.

With `O=C(O)c1cc(=O)c2c(OCC(O)COc3cccc4oc(C(=O)O)cc(=O)c34)cccc2o1` [Cromolyn] the inhibition at 100 µM [1] was 52 ± 13%.
For `C[C@@H]1C[C@H]2[C@@H]3CCC4=CC(=O)C=C[C@]4(C)[C@@]3(F)[C@@H](O)C[C@]2(C)[C@@]1(O)C(=O)CO` [Dexamethasone, dexamethasone], the “IgE (IU/ml)” value (U266B1 cell line; U266B1, LPS 2 μg/ml, extracts 100 μg/ml, dexamethasone 2 μM, LPS+medium 392.9, no LPS 187.8) was 203.6 ± 30.9 IU/ml, the “IgE (IU/ml)” value (U266B1 cell line; U266B1, LPS stimulation, fractions at 30 μg/ml, LPS+medium 212.5, no LPS 117.4) was 138.9 ± 2.1 IU/ml and the “IgE (IU/ml)” value (U266B1 cell line; U266B1, LPS stimulation, silica gel fractions at 10 μg/ml, LPS+medium 540.4, no LPS 379.7) was 277.6 ± 12.4 IU/ml. For the same molecule, the IL-4 ([2]; drinking water 159.5, normal mouse 21.6) was 23.2 ± 8.7 pg/mL, the IL-12 ([2]; drinking water 906.2, normal mouse 1626.0) was 297.7 ± 16.4 pg/mL and the Interferon-γ ([2]; drinking water 1016.0, normal mouse 14.1) was 470.5 ± 38.6 pg/mL. It also gave an IL-5 ([2]; drinking water 2573.6, normal mouse 0.5) of 884.1 ± 80.7 pg/mL, an IgG2a in serum (Nc/Nga mouse; drinking water 177.5) of 148.0 ± 14.8 pg/mL and an IgG1 in serum (Nc/Nga mouse; drinking water 242.2) of 247.3 ± 10.8 pg/mL. It also gave an IgE in serum (Nc/Nga mouse; drinking water 1572.9) of 130.0 ± 55.3 pg/mL, an ovalbumin-specific IgG2b in serum ([3]; normal 1.0, drinking water 1.4, the values are: IgG2b relative to normal mice) of 1.2 ± 0.1 and an ovalbumin-specific IgG2a in serum ([3]; normal 1.0, drinking water 2.1, the values are: IgG2a relative to normal mice) of 1.9 ± 0.4. The ovalbumin-specific IgG1 in serum ([3]; normal 1.0, drinking water 5.1, the values are: IgG1 relative to normal mice) was 3.1 ± 0.3, the ovalbumin-specific IgE in serum ([3]; normal 1.0, drinking water 7.6, the values are: IgE relative to normal mice) was 2 ± 0.6 and the IL-4 ([4]; drinking water 151.9) was 42.7 ± 19.4 pg/mL. It also gave an IL-5 ([4]; drinking water 778.3) of 646.5 ± 51.7 pg/mL, an IL-12 ([4]; drinking water 1925.7) of 201.2 ± 12.1 pg/mL and an Interferon-γ ([4]; drinking water 10407.5) of 10096.4 ± 192.4 pg/mL.
`COc1ccc2c(c1)c(CC(=O)O)c(C)n2C(=O)c1ccc(Cl)cc1` [Indomethacin, indomethacin] gave an Index of edema ([5]; control 7.2 ± 1.1) of 1.3 ± 0.3 mg and an inhibition at 10 mg/kg ([5]; Mus musculus, po, read-out: Inhibition rate (%)) of 81.9%.

Source: US9131722B2, “Composition comprising the extract of Actinidia arguta and related species for the prevention and treatment of allergic disease and non-allergic inflammatory disease” (VIROMED CO., LTD., priority 2002, dated 2015)
